Assay results: the NIST ThermoML archive (doi:10.1021/je5010643)
± gives the expanded uncertainty stated by the source.

Experiments:
[1] = 101.32 kPa, Liquid; for speed of sound: Frequency=3 MHz, Linear variable-path acoustic interferometer
[2] = refractive index (Na D-line) (dimensionless); conditions: 101.32 kPa, Liquid, Standard Abbe refractometry
[3] = xn = mol fraction of the nth substance listed; conditions: 101.32 kPa, Liquid, x1 = 1; for speed of sound: Frequency=3 MHz, Linear variable-path acoustic interferometer
[4] = refractive index (Na D-line) (dimensionless); xn = mol fraction of the nth substance listed; conditions: 101.32 kPa, Liquid, Standard Abbe refractometry, x1 = 1

C1COCCO1 [1,4-dioxane]
Conditions	mass density, [1] [kg/m3]	refractive index, [2]	speed of sound, [1] [m/s]
295.15 K	1030.86 ± 0.9	1.4211 ± 0.0004	1357.7 ± 1.8
298.15 K	1027.59 ± 0.88	1.4197 ± 0.0004	1344.8 ± 1.8
301.15 K	1024.32 ± 0.86	1.4183 ± 0.0004	1331.9 ± 1.7
304.15 K	1021.05 ± 0.83	1.4168 ± 0.0004	1319 ± 1.7
307.15 K	1017.78 ± 0.81	1.4154 ± 0.0004	1306.2 ± 1.7
310.15 K	1014.51 ± 0.79	1.4138 ± 0.0004	1293.3 ± 1.7
313.15 K	1011.24 ± 0.77	1.4124 ± 0.0004	1280.4 ± 1.7

C1COCCO1 [1,4-dioxane] + CC(C)C(=O)O
Conditions	mass density, [3] [kg/m3]	refractive index, [4]	speed of sound, [3] [m/s]
295.15 K	1030.86 ± 0.9	1.4211 ± 0.0004	1357.7 ± 1.8
298.15 K	1027.59 ± 0.88	1.4197 ± 0.0004	1344.8 ± 1.8
301.15 K	1024.32 ± 0.86	1.4183 ± 0.0004	1331.9 ± 1.7
304.15 K	1021.05 ± 0.83	1.4168 ± 0.0004	1319 ± 1.7
307.15 K	1017.78 ± 0.81	1.4154 ± 0.0004	1306.2 ± 1.7
310.15 K	1014.51 ± 0.79	1.4138 ± 0.0004	1293.3 ± 1.7
313.15 K	1011.24 ± 0.77	1.4124 ± 0.0004	1280.4 ± 1.7

CC(C)C(=O)O [2-methylpropanoic acid]
Conditions	mass density, [1] [kg/m3]	refractive index, [2]	speed of sound, [1] [m/s]
295.15 K	945.28 ± 1	1.3919 ± 0.0004	1100.2 ± 1.6
298.15 K	942.22 ± 1	1.3907 ± 0.0004	1086 ± 1.6
301.15 K	939.16 ± 1.1	1.3895 ± 0.0004	1072.1 ± 1.6
304.15 K	936.1 ± 1.1	1.3883 ± 0.0004	1058.2 ± 1.6
307.15 K	933.04 ± 1.1	1.3872 ± 0.0004	1043.4 ± 1.6
310.15 K	929.98 ± 1.1	1.386 ± 0.0004	1030.8 ± 1.6
313.15 K	926.92 ± 1.1	1.3849 ± 0.0004	1015.2 ± 1.6
